Experimental data from patent US10189826B2, “Heterocyclic compounds and methods of use” (Medivation Technologies LLC, priority 2015, dated 2019).
Where two headings read alike, the source gives them in different places.

How the values were obtained:
[1] = system: SREBP-2 transcriptional activity (SREBP2 cleavage) in HepG2_LSSprom cells; assay: Luciferase reporter driven by a SREBP-2 specific promoter in HepG2_LSSprom cells; assay type: cell-based; conditions: 24 h, read-out: SREBP2 Cleavage (IC50 μM) 24 h
Procedure, shortened: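 HepG2_LSSprom cells dosed at 0.625-10 μM in serum-free medium for 6 h (or 24 h), then luciferase luminescence read. Signal normalized to vehicle (100%); IC50 by four-parameter nonlinear fit; five independent experiments, triplicate wells.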

[2] = Cytotoxicity assay (LDH release) in HepG2_LSSprom cells; assay type: cell-based; conditions: human, HepG2 LSSprom cells, 24 h treatment, LDH release
Procedure, shortened: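 HepG2_LSSprom cells exposed to compound at 0.625–10 μM in serum-free medium for 6 h or 24 h. Medium LDH measured colorimetrically at 490 nm; release expressed as % of lysis control after vehicle subtraction, negatives set to 0; five independent experiments, triplicate wells, mean±SEM.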

[3] = 24 h treatment, HepG2_LSSprom cells

| IC50 [1, 3] | Compound | IC50 at 24 h [2] | IC50 [1] |
| --- | --- | --- | --- |
| > 10 µM | CC(C)(C)c1cc(-c2cc(-c3ccc(C(=O)N4CCC(N)CC4)cc3Cl)cs2)ccn1 [Compound 72, 1-{4-[5-(2-tert-butylpyridin-4-yl)thiophen-3-yl]-3-chlorobenzoyl}piperidin-4-amine] | > 10 µM |  |
|  | CC(C)(C)c1cc(-c2csc(-c3ccc(C(=O)N(CCC(=O)O)c4ccc(F)cc4)cc3Cl)c2)ccn1 [Compound 73, 3-(N-[4-[4-(2-tert-butyl-4-pyridyl)-2-thienyl]-3-chloro-benzoyl]-4-fluoro-anilino)propanoic acid] | > 10 µM | > 3 µM |
| 0.74 µM | CC(C)(C)c1cc(-c2csc(-c3ccc(C(=O)N4CCC[C@@H](N)C4)cc3Cl)c2)ccn1 [Compound 74a, (R)-(3-aminopiperidin-1-yl)(4-(4-(2-(tert-butyl)pyridin-4-yl)thiophen-2-yl)-3-chlorophenyl)methanone] | > 10 µM |  |
| 0.51 µM | CC(C)(C)c1cc(-c2csc(-c3ccc(C(=O)N4CCC[C@H](N)C4)cc3Cl)c2)ccn1 [Compound 74b, (3S)-1-{4-[4-(2-tert-butylpyridin-4-yl)thiophen-2-yl]-3-chlorobenzoyl}piperidin-3-amine] | > 10 µM |  |
| 3.2 µM | CNC1CCCN(C(=O)c2ccc(-c3csc(-c4ccnc(C(C)(C)C)c4)c3)c(Cl)c2)C1 (stereo not shown) [Compound 75, 1-{4-[5-(2-tert-butylpyridin-4-yl)thiophen-3-yl]-3-chlorobenzoyl}-N-methylpiperidin-3-amine] | > 10 µM |  |
| 1.6 µM | CC(C)(C)C(=O)NC1CCN(C(=O)c2ccc(-c3csc(-c4ccnc(C(C)(C)C)c4)c3)c(Cl)c2)CC1 [Compound 76, N-(1-{4-[5-(2-tert-butylpyridin-4-yl)thiophen-3-yl]-3-chlorobenzoyl}piperidin-4-yl)-2,2-dimethylpropanamide] | > 10 µM |  |
| 2.3 µM | Cc1sc(-c2ccc(C(=O)N3CCNC(=O)C3)cc2Cl)cc1-c1ccnc(C(C)(C)C)c1 [Compound 77, 4-{4-[4-(2-tert-butylpyridin-4-yl)-5-methylthiophen-2-yl]-3-chlorobenzoyl}piperazin-2-one] | > 10 µM |  |
| 0.2 µM | CC(C)(C)OC(=O)N1CCC(NC(=O)c2ccc(-c3csc(-c4ccnc(C(C)(C)C)c4)c3)c(Cl)c2)CC1 [Compound 78, tert-butyl 4-{4-[5-(2-tert-butylpyridin-4-yl)thiophen-3-yl]-3-chlorobenzamido}piperidine-1-carboxylate] | > 10 µM |  |
| 0.29 µM | Cc1sc(-c2ccc(C(=O)N3CCC[C@@H](NC(=O)OC(C)(C)C)C3)cc2Cl)cc1-c1ccnc(C(C)(C)C)c1 [Compound 79a, tert-butyl N-[(3R)-1-{4-[4-(2-tert-butylpyridin-4-yl)-5-methylthiophen-2-yl]-3-chlorobenzoyl}piperidin-3-yl]carbamate] | > 10 µM |  |
| 0.52 µM | Cc1sc(-c2ccc(C(=O)N3CCC[C@H](NC(=O)OC(C)(C)C)C3)cc2Cl)cc1-c1ccnc(C(C)(C)C)c1 [Compound 79b, tert-butyl N-[(3S)-1-{4-[4-(2-tert-butylpyridin-4-yl)-5-methylthiophen-2-yl]-3-chlorobenzoyl}piperidin-3-yl]carbamate] | > 10 µM |  |
| 0.06 µM | CC(C)(C)c1cc(-c2cc(-c3ccc(C(=O)N4CCCC(NCc5ccc(Cl)cc5)C4)cc3Cl)cs2)ccn1 (stereo not shown) [Compound 80, 1-{4-[5-(2-tert-butylpyridin-4-yl)thiophen-3-yl]-3-chlorobenzoyl}-N-[(4-chlorophenyl)methyl]piperidin-3-amine] | > 10 µM |  |
| 0.095 µM | CC(C)(C)c1cc(-c2cc(-c3ccc(C(=O)N4CCC[C@@H](NCc5ccc(Cl)cc5)C4)cc3Cl)cs2)ccn1 [Compound 80a, (R)-(4-(5-(2-(tert-butyl)pyridin-4-yl)thiophen-3-yl)-3-chlorophenyl)(3-((4-chlorobenzyl)amino)piperidin-1-yl)methanone] | > 10 µM |  |
| 0.04 µM | CC(C)(C)c1cc(-c2cc(-c3ccc(C(=O)N4CCC[C@H](NCc5ccc(Cl)cc5)C4)cc3Cl)cs2)ccn1 [Compound 80b, (S)-(4-(5-(2-(tert-butyl)pyridin-4-yl)thiophen-3-yl)-3-chlorophenyl)(3-((4-chlorobenzyl)amino)piperidin-1-yl)methanone] | > 10 µM |  |
| 0.14 µM | CC(C)(C)c1cc(-c2cc(-c3ccc(C(=O)N4CCCC(NCc5cccc(Cl)c5)C4)cc3Cl)cs2)ccn1 (stereo not shown) [Compound 81, 1-{4-[5-(2-tert-butylpyridin-4-yl)thiophen-3-yl]-3-chlorobenzoyl}-N-[(3-chlorophenyl)methyl]piperidin-3-amine] | > 10 µM |  |
| 0.5 µM | CC(C)(C)c1cc(-c2cc(-c3ccc(C(=O)N4CCC(O)C4)cc3Cl)cs2)ccn1 (stereo not shown) [Compound 82, [4-[5-(2-tert-butyl-4-pyridyl)-3-thienyl]-3-chloro-phenyl]-(3-hydroxypyrrolidin-1-yl)methanone] | > 10 µM |  |
| 0.47 µM | CC(C)(C)c1cc(-c2cc(-c3ccc(C(=O)N4CCCC5(CCNC5=O)C4)cc3Cl)cs2)ccn1 (stereo not shown) [Compound 83, 7-{4-[5-(2-tert-butylpyridin-4-yl)thiophen-3-yl]-3-chlorobenzoyl}-2,7-diazaspiro[4.5]decan-1-one] | > 10 µM |  |
| > 3 µM | CC(C)(C)c1cc(-c2cc(-c3ccc(C(=O)N4CCN5CCCC5C4)cc3Cl)cs2)ccn1 (stereo not shown) [Compound 84, 2-tert-butyl-4-[4-(2-chloro-4-{octahydropyrrolo[1,2-a]piperazine-2-carbonyl}phenyl)thiophen-2-yl]pyridine] | > 10 µM |  |
|  | CC(C)(C)c1cc(-c2nc(-c3ccc(C(=O)N4CCCC(N)C4)cc3Cl)c[nH]2)ccn1 (stereo not shown) [Compound 85, 1-{4-[2-(2-tert-butylpyridin-4-yl)-1H-imidazol-4-yl]-3-chlorobenzoyl}piperidin-3-amine] | > 10 µM | > 3 µM |
| 0.06 µM | CC(C)(C)c1cc(-c2csc(-c3ccc(C(=O)N4CCC(O)CC4)cc3Cl)c2)ccn1 [Compound 86, 1-{4-[4-(2-tert-butylpyridin-4-yl)thiophen-2-yl]-3-chlorobenzoyl}piperidin-4-ol] | > 10 µM |  |
| > 10 µM | Cc1sc(-c2ccc(C(=O)N3CCC[C@H](N)C3)cc2Cl)cc1-c1ccnc(C(C)(C)C)c1 [Compound 87a, (3S)-1-{4-[4-(2-tert-butylpyridin-4-yl)-5-methylthiophen-2-yl]-3-chlorobenzoyl}piperidin-3-amine] | > 10 µM |  |
| > 10 µM | Cc1sc(-c2ccc(C(=O)N3CCC[C@@H](N)C3)cc2Cl)cc1-c1ccnc(C(C)(C)C)c1 [Compound 87b, (3R)-1-{4-[4-(2-tert-butylpyridin-4-yl)-5-methylthiophen-2-yl]-3-chlorobenzoyl}piperidin-3-amine] | > 10 µM |  |
| 2.8 µM | CC(C)(C)c1cc(-c2csc(-c3ccc(C(=O)N4CCC(C(=O)O)CC4)cc3Cl)c2)ccn1 [Compound 88, 1-{4-[4-(2-tert-butylpyridin-4-yl)thiophen-2-yl]-3-chlorobenzoyl}piperidine-4-carboxylic acid] | > 10 µM |  |
| 0.037 µM | CC(C)(C)c1cc(-c2csc(-c3ccc(C(=O)N4CCCC(O)C4)cc3Cl)c2)ccn1 (stereo not shown) [Compound 89, 1-{4-[4-(2-tert-butylpyridin-4-yl)thiophen-2-yl]-3-chlorobenzoyl}piperidin-3-ol] | > 10 µM |  |
